The nature of this data set: recombinant barcode read abundance after kanamycin selection (control-corrected) (log10(CPM+1)); higher = more efficient recombination; sequences stand for … in AGTGCAGAGAAAATCGGCCAGTTTTCTCTGCCTGCAGTCCGCATGCCGT…AGATTTATGCAGCGGACTGCCTTTCTCCCAAAGTGATAAACCGGACAGTATCATGGACCGGTTTTCCCGGTAATCCGTATTTGCAAGGTTGGTTTCACT; site = the 11-nt target. Put shortly:
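Two replicates per condition were plated: chloramphenicol/ampicillin LB agar for the control, and chloramphenicol/ampicillin/kanamycin with 0.1 mM IPTG for selection. The pooled E. coli screen behind them paired targets with IS621 bridge RNA target-binding loops. Recombination efficiency is expressed from averaged, control-corrected barcode counts per million at recombinant junctions, as log10(CPM+1).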
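Further: IS621 recombinase and bridge RNA in Escherichia coli cells.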

On to “CGAGGGTCTTGGGTTCTAACCTGTTGCTT (site GGAGGGTCTAA)”, for which the “recombinant barcode read abundance (log10)” value worked out at 0.413. The same measure for “CGAGGGTCTTGGGTTCTAACCTGTTGCTT (site TGAGGGTCTAA)”: 0.147; for “CGAGGTTCTTGGGTTCTAACCTGTTGCCT (site CGAGGTTCTAG)”: 1.06; for “CGAGGTTCTTGGGTTCTAACCTGTTGCCT (site CGCGGTTCTAG)”: 0.212. Then “CGAGTCCCTTGGGTTCTAACCTGTTGCAG (site ATCTAAACTAG)”, with 0.137. Turning to “CGAGTCCCTTGGGTTCTAACCTGTTGCAG (site CGAGTCCCTCT)”, the “recombinant barcode read abundance (log10)” value is 2.15. The same measure for “CGAGTGTCTTGGGTTCTAACCTGTTGCTA (site CGAGTGTCTTA)”: 1.96; for “CGAGTGTCTTGGGTTCTAACCTGTTGCTA (site GATCACCCTAT)”: 0.0951.

Consider “CGATCATCTTGGGTTCTAACCTGTTGCCT (site CGATCATCTAG)”, for which the “recombinant barcode read abundance (log10)” value amounted to 0.103. Then “CGATCATCTTGGGTTCTAACCTGTTGCCT (site CGCTCATCTAG)”, with 0.0503; and “CGATCATCTTGGGTTCTAACCTGTTGCCT (site CGGTCATCTAG)”, with 0.173. For the sequence “CGATCATCTTGGGTTCTAACCTGTTGCCT (site CGTTCATCTAG)”, the “recombinant barcode read abundance (log10)” value turned out to be 0.0823. The same measure for “CGATCCACTTGGGTTCTAACCTGTTGCCT (site AGATCCACTAG)”: 0.0256; for “CGATCCACTTGGGTTCTAACCTGTTGCCT (site CGATCCACTAG)”: 0.0891. The same measure for “CGATCCACTTGGGTTCTAACCTGTTGCCT (site GGATCCACTAG)”: 1.56; for “CGATCCACTTGGGTTCTAACCTGTTGCCT (site TGATCCACTAG)”: 0.0673. Then “CGATCTCCTTGGGTTCTAACCTGTTGCAC (site ACTCACTCTAG)”, with 0.0376; and “CGATCTCCTTGGGTTCTAACCTGTTGCAC (site CGATCTCCTGT)”, with 0.303. As for “CGATGACCTTGGGTTCTAACCTGTTGCAT (site CGATGACCTAT)”, the “recombinant barcode read abundance (log10)” value stood at 1.48. The same measure for “CGATGACCTTGGGTTCTAACCTGTTGCAT (site CGATGGCCTAT)”: 0.107; for “CGATGGCCTTGGGTTCTAACCTGTTGCAT (site CGATGACCTAT)”: 0.388; for “CGATGGCCTTGGGTTCTAACCTGTTGCAT (site CGATGGCCTAT)”: 0.433. Then “CGATTAGCTTGGGTTCTAACCTGTTGCCG (site ATTCACACTAC)”, with 0.0236. Then “CGATTAGCTTGGGTTCTAACCTGTTGCCG (site CGATTAGCTCG)”, with 0.536; and “CGATTATCTTGGGTTCTAACCTGTTGCCT (site CGATTAACTAG)”, with 0.25. On to “CGATTATCTTGGGTTCTAACCTGTTGCCT (site CGATTACCTAG)”, for which the “recombinant barcode read abundance (log10)” value was 0.162. The same measure for “CGATTATCTTGGGTTCTAACCTGTTGCCT (site CGATTAGCTAG)”: 0.0752. Then “CGATTATCTTGGGTTCTAACCTGTTGCCT (site CGATTATCTAG)”, with 0.0534. Then “CGCAAGCCTTGGGTTCTAACCTGTTGCAT (site CGCAAGCCTAT)”, with 0.0608; and “CGCAAGCCTTGGGTTCTAACCTGTTGCAT (site CGTAAGCCTAT)”, with 0; and “CGCAGCCCTTGGGTTCTAACCTGTTGCAT (site CGCAGCCCTAT)”, with 0.462. As to “CGCAGCCCTTGGGTTCTAACCTGTTGCAT (site CGGAGCCCTAT)”, the “recombinant barcode read abundance (log10)” value was determined as 0.0663. Then “CGCAGCTCTTGGGTTCTAACCTGTTGCCT (site CGAAGCTCTAG)”, with 0.0165. For “CGCAGCTCTTGGGTTCTAACCTGTTGCCT (site CGCAGCTCTAG)”, the “recombinant barcode read abundance (log10)” value came out at 0.0301. The same measure for “CGCAGCTCTTGGGTTCTAACCTGTTGCCT (site CGGAGCTCTAG)”: 0.0445; for “CGCAGCTCTTGGGTTCTAACCTGTTGCCT (site CGTAGCTCTAG)”: 0.511; for “CGCCCTCCTTGGGTTCTAACCTGTTGCAT (site CGCCATCCTAT)”: 0.0837.

“CGCCCTCCTTGGGTTCTAACCTGTTGCAT (site CGCCCTCCTAT)”: the “recombinant barcode read abundance (log10)” value was determined as 0.362. Then “CGCCCTCCTTGGGTTCTAACCTGTTGCAT (site CGCCGTCCTAT)”, with 0.117; and “CGCCCTCCTTGGGTTCTAACCTGTTGCAT (site CGCCTTCCTAT)”, with 0.0322. Consider “CGCCGCCCTTGGGTTCTAACCTGTTGCCT (site AGCCGCCCTAT)”, for which the “recombinant barcode read abundance (log10)” value is 0.447. The same measure for “CGCCGCCCTTGGGTTCTAACCTGTTGCCT (site CGCCGCCCTAG)”: 0.18; for “CGCCTCTCTTGGGTTCTAACCTGTTGCCT (site CGCCTCACTAG)”: 0.0921. Then “CGCCTCTCTTGGGTTCTAACCTGTTGCCT (site CGCCTCCCTAG)”, with 0.211.

In the case of “CGCCTCTCTTGGGTTCTAACCTGTTGCCT (site CGCCTCGCTAG)”, the “recombinant barcode read abundance (log10)” value is 0.307.

For “CGCCTCTCTTGGGTTCTAACCTGTTGCCT (site CGCCTCTCTAG)”, the “recombinant barcode read abundance (log10)” value was found to be 0.0707. Then “CGCGAATCTTGGGTTCTAACCTGTTGCTT (site CGCGAATCTAA)”, with 0.0373. The same measure for “CGCGAATCTTGGGTTCTAACCTGTTGCTT (site CGCGGGTCTAA)”: 0.168; for “CGCGCGGCTTGGGTTCTAACCTGTTGCCT (site CGCGCGGCTAG)”: 0.251. Then “CGCGCGGCTTGGGTTCTAACCTGTTGCCT (site CGCGGGGCTAG)”, with 0.266; and “CGCGGTTCTTGGGTTCTAACCTGTTGCCT (site CGAGGTTCTAG)”, with 0.339. On to “CGCGGTTCTTGGGTTCTAACCTGTTGCCT (site CGCGGTTCTAG)”, for which the “recombinant barcode read abundance (log10)” value amounted to 0.0855. Then “CGCGTTGCTTGGGTTCTAACCTGTTGCCT (site AAGCCCACTCC)”, with 0.0136; and “CGCGTTGCTTGGGTTCTAACCTGTTGCCT (site CGCGTTGCTAG)”, with 0.48; and “CGCTCGTCTTGGGTTCTAACCTGTTGCCT (site CGCTAGTCTAG)”, with 0.0163. Then “CGCTCGTCTTGGGTTCTAACCTGTTGCCT (site CGCTCGTCTAG)”, with 0.00559; and “CGCTCGTCTTGGGTTCTAACCTGTTGCCT (site CGCTGGTCTAG)”, with 0.0376; and “CGCTCGTCTTGGGTTCTAACCTGTTGCCT (site CGCTTGTCTAG)”, with 0.163. Then “CGCTGTCCTTGGGTTCTAACCTGTTGCTT (site CGCTGACCTAA)”, with 0.156; and “CGCTGTCCTTGGGTTCTAACCTGTTGCTT (site CGCTGCCCTAA)”, with 0.148; and “CGCTGTCCTTGGGTTCTAACCTGTTGCTT (site CGCTGGCCTAA)”, with 0.348.

Regarding “CGCTGTCCTTGGGTTCTAACCTGTTGCTT (site CGCTGTCCTAA)”, the “recombinant barcode read abundance (log10)” value worked out at 0.176. For “CGGAACCCTTGGGTTCTAACCTGTTGCCG (site CGGAACCCTCG)”, the “recombinant barcode read abundance (log10)” value stood at 1.22. Turning to “CGGAACCCTTGGGTTCTAACCTGTTGCCG (site CGGAGCCCTTG)”, the “recombinant barcode read abundance (log10)” value was 0.11.

As to “CGGAAGACTTGGGTTCTAACCTGTTGCCT (site CGGAAGACTAG)”, the “recombinant barcode read abundance (log10)” value came to 1.98. The same measure for “CGGAAGACTTGGGTTCTAACCTGTTGCCT (site CGGAAGCCTAG)”: 0.121. Then “CGGAAGACTTGGGTTCTAACCTGTTGCCT (site CGGAAGGCTAG)”, with 0.537.

With “CGGAAGACTTGGGTTCTAACCTGTTGCCT (site CGGAAGTCTAG)”, the “recombinant barcode read abundance (log10)” value is 0.516. The same measure for “CGGAAGCCTTGGGTTCTAACCTGTTGCCT (site CGGAAGACTAG)”: 0.0744; for “CGGAAGCCTTGGGTTCTAACCTGTTGCCT (site CGGAAGCCTAG)”: 1.74; for “CGGAAGCCTTGGGTTCTAACCTGTTGCCT (site CGGAAGGCTAG)”: 0.0821. Then “CGGAAGCCTTGGGTTCTAACCTGTTGCCT (site CGGAAGTCTAG)”, with 0.818; and “CGGAAGGCTTGGGTTCTAACCTGTTGCCT (site CGGAAGACTAG)”, with 0.036; and “CGGAAGGCTTGGGTTCTAACCTGTTGCCT (site CGGAAGCCTAG)”, with 0.0918. The same measure for “CGGAAGGCTTGGGTTCTAACCTGTTGCCT (site CGGAAGGCTAG)”: 0.89. As for “CGGAAGGCTTGGGTTCTAACCTGTTGCCT (site CGGAAGTCTAG)”, the “recombinant barcode read abundance (log10)” value was found to be 0.401. Then “CGGAATCCTTGGGTTCTAACCTGTTGCGT (site CGGAATCCTAA)”, with 0.159.

These data come from the supplement of paper PMC11208160.
